Earlier results as cited in patent publication EP1608381B1, “THERAPEUTIC AND CONSMETIC APPLICATION FOR A COMPOSITION CONTAINING LYCOPENE” (Touche, Marie-José, priority 2002, dated 2003).
Blank lines part the entries; values can stand above or below the molecule they belong to.

Legend:
[1] = relative to Bétacarotène

solubilité dans le chlorure de méthylène (chlorure de méthylène): facilement soluble
solubilité dans l'eau froide (eau froide): pratiquement insoluble
soluble dans p. d'alcool à 50° (parts of solvent, alcool à 50°): 10 p.
soluble dans p. d'huile d'olive (parts of solvent, huile d'olive): 12,5 p.
soluble dans p de vaseline (parts of solvent, vaseline): 200 p
SMILES: CCCCOC(=O)c1ccc(N)cc1 [Butoforme, p-aminobenzoate de n- butyle]

solubilité dans l'eau (eau): insoluble
solubilité dans l'éthanol (éthanol): soluble
SMILES: C=CCc1ccc(O)c(OC)c1 [EUGENOL, eugénol]

SMILES: CC(C)=CCC/C(C)=C/C=C/C(C)=C/C=C/C(C)=C/C=C/C=C(C)/C=C/C=C(C)/C=C/C=C(\C)CCC=C(C)C [lycopène, psi-psi-carotène]
effet sur les radicaux libres, fois plus que le Bétacarotène [1]: 2 fois
